{"source": "patent US12660819B2", "about": "“Herbicidal derivatives” (SYNGENTA CROP PROTECTION AG, priority 2020, dated 2026)", "assay_type_in_all_cases": "in vivo", "key": {"Zea mays (ZEAMX) [1]": {"tested_on": "Zea mays (ZEAMX)", "assay": "Pre-emergence Test (glasshouse, percentage damage to the plant)", "conditions": "1000 g/ha unless otherwise stated, Zea mays"}, "Setaria faberi (SETFA) [2]": {"tested_on": "Setaria faberi (SETFA)", "assay": "Pre-emergence Test (glasshouse, percentage damage to the plant)", "conditions": "1000 g/ha unless otherwise stated, Setaria faberi"}, "[3]": {"tested_on": "Amaranthus retoflexus (AMARE)", "assay": "Pre-emergence Test (glasshouse, percentage damage to the plant)", "conditions": "1000 g/ha unless otherwise stated, Amaranthus retoflexus"}, "Zea mays (ZEAMX) [4]": {"tested_on": "Zea mays (ZEAMX)", "assay": "Post-emergence Test (glasshouse, percentage damage to the plant)", "conditions": "post-emergence; 1000 g/ha unless otherwise stated; evaluated after 13 days", "how_it_was_run": "(§1)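 Compound formulated in 50:50 acetone/water with 0.5% Tween 20 was diluted to an aqueous spray and applied at 1000 g/ha, unless otherwise stated, onto sown pots. Evaluation after 13 days gave percentage damage, banded into a 1–5 score.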"}, "[5]": {"tested_on": "Amaranthus palmeri (AMAPA)", "assay": "Post-emergence Test (glasshouse, percentage damage to the plant)", "conditions": "post-emergence; 1000 g/ha unless otherwise stated; evaluated after 13 days", "how_it_was_run": "(§2)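 Seeds are sown in standard soil under controlled glasshouse conditions. The pots are then sprayed at 1000 g/ha, unless otherwise stated, with compound in acetone/water (50:50) containing 0.5% Tween 20. After 13 days further growth, percentage plant damage is scored from 1 (0-20%) to 5 (81-100%).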"}, "[6]": {"tested_on": "Ipomoea hederacea (IPOHE)", "assay": "Post-emergence Test (glasshouse, percentage damage to the plant)", "conditions": "post-emergence; 1000 g/ha unless otherwise stated; evaluated after 13 days", "how_it_was_run": "as §1"}, "[7]": {"tested_on": "Amaranthus retoflexus (AMARE)", "assay": "Post-emergence Test (glasshouse, percentage damage to the plant)", "conditions": "post-emergence; 1000 g/ha unless otherwise stated; evaluated after 13 days", "how_it_was_run": "as §2"}, "Setaria faberi (SETFA) [8]": {"tested_on": "Setaria faberi (SETFA)", "assay": "Post-emergence Test (glasshouse, percentage damage to the plant)", "conditions": "post-emergence; 1000 g/ha unless otherwise stated; evaluated after 13 days", "how_it_was_run": "as §1"}, "[9]": {"tested_on": "Echinochloa crus-galli (ECHCG)", "assay": "Pre-emergence Test (glasshouse, percentage damage to the plant)", "conditions": "1000 g/ha unless otherwise stated, Echinochloa crus-galli"}, "[10]": {"tested_on": "Amaranthus palmeri (AMAPA)", "assay": "Pre-emergence Test (glasshouse, percentage damage to the plant)", "conditions": "1000 g/ha unless otherwise stated, Amaranthus palmeri"}, "[11]": {"tested_on": "Ipomoea hederacea (IPOHE)", "assay": "Pre-emergence Test (glasshouse, percentage damage to the plant)", "conditions": "1000 g/ha unless otherwise stated, Ipomoea hederacea"}}}
{"smiles": "CCn1c(C)c(-c2ccc(C)cc2F)c(=O)c(C(=O)O)c1-c1ccc(Cl)c(Cl)c1", "note": "[Compound 236, 2-(3,4-dichlorophenyl)-1-ethyl-5-(2-fluoro-4-methyl-phenyl)-6-methyl-4-oxo-pyridine-3-carboxylic acid]", "values": [{"measurement": "percentage damage to the plant, ZEAMX (five-point scale)", "setting": "Zea mays (ZEAMX) [1]", "value": "1 (1=0-20%)"}, {"measurement": "percentage damage to the plant, SETFA (five-point scale)", "setting": "Setaria faberi (SETFA) [2]", "value": "4 (4=61-80%)"}, {"measurement": "percentage damage to the plant, AMARE (five-point scale)", "setting": "[3]", "value": "1 (1=0-20%)"}, {"measurement": "ZEAMX, percentage damage caused to the plant (five-point scale)", "setting": "Zea mays (ZEAMX) [4]", "value": "2 (2=21-40%)"}, {"measurement": "AMAPA, percentage damage caused to the plant (five-point scale)", "setting": "[5]", "value": "5 (5=81-100%)"}, {"measurement": "IPOHE, percentage damage caused to the plant (five-point scale)", "setting": "[6]", "value": "5 (5=81-100%)"}, {"measurement": "AMARE, percentage damage caused to the plant (five-point scale)", "setting": "[7]", "value": "5 (5=81-100%)"}, {"measurement": "SETFA, percentage damage caused to the plant (five-point scale)", "setting": "Setaria faberi (SETFA) [8]", "value": "2 (2=21-40%)"}, {"measurement": "percentage damage to the plant, ECHCG (five-point scale)", "setting": "[9]", "value": "3 (3=41-60%)"}, {"measurement": "percentage damage to the plant, AMAPA (five-point scale)", "setting": "[10]", "value": "2 (2=21-40%)"}, {"measurement": "percentage damage to the plant, IPOHE (five-point scale)", "setting": "[11]", "value": "4 (4=61-80%)"}]}
{"smiles": "CCn1c(C)c(-c2ccc(S(C)(=O)=O)cc2F)c(=O)c(C(=O)O)c1-c1ccc(Cl)c(Cl)c1", "note": "[Compound 239, 2-(3,4-dichlorophenyl)-1-ethyl-5-(2-fluoro-4-methylsulfonyl-phenyl)-6-methyl-4-oxo-pyridine-3-carboxylic acid]", "values": [{"measurement": "percentage damage to the plant, ZEAMX (five-point scale)", "setting": "Zea mays (ZEAMX) [1]", "value": 0}, {"measurement": "percentage damage to the plant, SETFA (five-point scale)", "setting": "Setaria faberi (SETFA) [2]", "value": "5 (5=81-100%)"}, {"measurement": "percentage damage to the plant, AMARE (five-point scale)", "setting": "[3]", "value": "1 (1=0-20%)"}, {"measurement": "ZEAMX, percentage damage caused to the plant (five-point scale)", "setting": "Zea mays (ZEAMX) [4]", "value": "2 (2=21-40%)"}, {"measurement": "AMAPA, percentage damage caused to the plant (five-point scale)", "setting": "[5]", "value": "3 (3=41-60%)"}, {"measurement": "IPOHE, percentage damage caused to the plant (five-point scale)", "setting": "[6]", "value": "2 (2=21-40%)"}, {"measurement": "AMARE, percentage damage caused to the plant (five-point scale)", "setting": "[7]", "value": "4 (4=61-80%)"}, {"measurement": "SETFA, percentage damage caused to the plant (five-point scale)", "setting": "Setaria faberi (SETFA) [8]", "value": "4 (4=61-80%)"}, {"measurement": "percentage damage to the plant, ECHCG (five-point scale)", "setting": "[9]", "value": "5 (5=81-100%)"}, {"measurement": "percentage damage to the plant, AMAPA (five-point scale)", "setting": "[10]", "value": "1 (1=0-20%)"}, {"measurement": "percentage damage to the plant, IPOHE (five-point scale)", "setting": "[11]", "value": "1 (1=0-20%)"}]}
{"smiles": "CCn1c(C)c(-c2cc(Cl)ccc2F)c(=O)c(C(=O)O)c1-c1ccc(Cl)c(Cl)c1", "note": "[Compound 229, 5-(5-chloro-2-fluoro-phenyl)-2-(3,4-dichlorophenyl)-1-ethyl-6-methyl-4-oxo-pyridine-3-carboxylic acid]", "values": [{"measurement": "percentage damage to the plant, ZEAMX (five-point scale)", "setting": "Zea mays (ZEAMX) [1]", "value": 0}, {"measurement": "percentage damage to the plant, SETFA (five-point scale)", "setting": "Setaria faberi (SETFA) [2]", "value": "1 (1=0-20%)"}, {"measurement": "percentage damage to the plant, AMARE (five-point scale)", "setting": "[3]", "value": "4 (4=61-80%)"}, {"measurement": "ZEAMX, percentage damage caused to the plant (five-point scale)", "setting": "Zea mays (ZEAMX) [4]", "value": "1 (1=0-20%)"}, {"measurement": "AMAPA, percentage damage caused to the plant (five-point scale)", "setting": "[5]", "value": "5 (5=81-100%)"}, {"measurement": "IPOHE, percentage damage caused to the plant (five-point scale)", "setting": "[6]", "value": "3 (3=41-60%)"}, {"measurement": "AMARE, percentage damage caused to the plant (five-point scale)", "setting": "[7]", "value": "5 (5=81-100%)"}, {"measurement": "SETFA, percentage damage caused to the plant (five-point scale)", "setting": "Setaria faberi (SETFA) [8]", "value": "1 (1=0-20%)"}, {"measurement": "percentage damage to the plant, ECHCG (five-point scale)", "setting": "[9]", "value": 0}, {"measurement": "percentage damage to the plant, AMAPA (five-point scale)", "setting": "[10]", "value": "4 (4=61-80%)"}, {"measurement": "percentage damage to the plant, IPOHE (five-point scale)", "setting": "[11]", "value": "1 (1=0-20%)"}]}
{"smiles": "CCn1c(C)c(-c2cccc(C)c2F)c(=O)c(C(=O)O)c1-c1ccc(Cl)c(Cl)c1", "note": "[Compound 228, 2-(3,4-dichlorophenyl)-1-ethyl-5-(2-fluoro-3-methyl-phenyl)-6-methyl-4-oxo-pyridine-3-carboxylic acid]", "values": [{"measurement": "percentage damage to the plant, ZEAMX (five-point scale)", "setting": "Zea mays (ZEAMX) [1]", "value": "2 (2=21-40%)"}, {"measurement": "percentage damage to the plant, SETFA (five-point scale)", "setting": "Setaria faberi (SETFA) [2]", "value": "5 (5=81-100%)"}, {"measurement": "percentage damage to the plant, AMARE (five-point scale)", "setting": "[3]", "value": "2 (2=21-40%)"}, {"measurement": "ZEAMX, percentage damage caused to the plant (five-point scale)", "setting": "Zea mays (ZEAMX) [4]", "value": "2 (2=21-40%)"}, {"measurement": "AMAPA, percentage damage caused to the plant (five-point scale)", "setting": "[5]", "value": "5 (5=81-100%)"}, {"measurement": "IPOHE, percentage damage caused to the plant (five-point scale)", "setting": "[6]", "value": "3 (3=41-60%)"}, {"measurement": "AMARE, percentage damage caused to the plant (five-point scale)", "setting": "[7]", "value": "4 (4=61-80%)"}, {"measurement": "SETFA, percentage damage caused to the plant (five-point scale)", "setting": "Setaria faberi (SETFA) [8]", "value": "3 (3=41-60%)"}, {"measurement": "percentage damage to the plant, ECHCG (five-point scale)", "setting": "[9]", "value": "5 (5=81-100%)"}, {"measurement": "percentage damage to the plant, AMAPA (five-point scale)", "setting": "[10]", "value": "4 (4=61-80%)"}, {"measurement": "percentage damage to the plant, IPOHE (five-point scale)", "setting": "[11]", "value": "3 (3=41-60%)"}]}
